This passage reports refractive index and mass density results from the NIST ThermoML archive (doi:10.1021/je060025z).

Data set [1] is described as follows: refractive index (Na D-line) (dimensionless). Conditions: 101.33 kPa, Liquid, Standard Abbe refractometry.
For data set [2] the following is noted: 101.33 kPa, Liquid, Vibrating tube method.

Numbers after ± are expanded uncertainties.

Usually refractive index stands for a measure of how strongly the sample bends light. In general, mass density refers to the mass of a sample divided by its volume. As to `COC(C)(C)C` [2-methoxy-2-methylpropane], the refractive index in data set [1] (298.15 K) turned out to be 1.3664 ± 0.0011. In data set [2] (298.15 K), the mass density was determined as 734.7 ± 2 kg/m3.

On to `CC(=O)C(C)C` [3-methyl-2-butanone], for which, in data set [1] (293.15 K), the refractive index came to 1.3884 ± 0.0011. For the same compound, in data set [2] (293.15 K), the mass density was determined as 804.8 ± 2.1 kg/m3.

As for `CC(C)CCO` [3-methylbutan-1-ol], the refractive index in data set [1] (293.15 K) came out at 1.4075 ± 0.0011. Moreover, the mass density in data set [2] (293.15 K) amounted to 808.4 ± 2.1 kg/m3.

Turning to `CCCC(=O)CCC` [4-heptanone], the refractive index in data set [1] (293.15 K) came to 1.4068 ± 0.0011. Further, in data set [2] (293.15 K), the mass density came to 817.6 ± 2.2 kg/m3.

As to `CC(=O)CC(C)C` [4-methylpentan-2-one], the refractive index in data set [1] (293.15 K) is given as 1.3958 ± 0.0011. Besides, the mass density in data set [2] (298.15 K) was found to be 796.1 ± 2.1 kg/m3.

As to `CCCCCCCC/C=C\CCCCCCCCO` [(Z)-9-octadecen-1-ol], the refractive index in data set [1] (293.15 K) was found to be 1.4601 ± 0.0011. Further, in data set [2] (293.15 K), the mass density is on record as 849 ± 2.3 kg/m3.

Regarding `CCCC(=O)O` [butanoic acid], the refractive index in data set [1] (293.15 K) was determined as 1.3982 ± 0.0011. In addition, the mass density in data set [2] (298.15 K) was determined as 952.3 ± 2.5 kg/m3.

As to `CCC(C)=O` [butanone], the refractive index in data set [1] (293.15 K) was found to be 1.3793 ± 0.0011. The mass density in data set [2] (298.15 K) amounted to 798.2 ± 2.1 kg/m3.

Turning to `CC(=O)OC1CCCCC1` [cyclohexyl ethanoate], the refractive index in data set [1] (293.15 K) was 1.4421 ± 0.0011. In data set [2] (293.15 K), the mass density was found to be 968.4 ± 2.6 kg/m3.

For `CCCCCCCCCCO` [decan-1-ol], the refractive index in data set [1] (293.15 K) was determined as 1.4374 ± 0.0011. For the same compound, the mass density in data set [2] (293.15 K) was found to be 829.6 ± 2.2 kg/m3.

In the case of `CCCCOC(=O)c1ccccc1C(=O)OCCCC` [dibutyl phthalate], in data set [1] (293.15 K), the refractive index turned out to be 1.4909 ± 0.0011. Besides, the mass density in data set [2] (293.15 K) stood at 1047.1 ± 2.8 kg/m3.

As for `COC(=O)c1ccccc1C(=O)OC` [dimethyl 1,2-benzenedicarboxylate], the refractive index in data set [1] (293.15 K) is on record as 1.5135 ± 0.0011. For the same compound, the mass density in data set [2] (293.15 K) is listed as 1190.4 ± 3.2 kg/m3.

Consider `CCCCCCCCCCCCO` [dodecan-1-ol], for which the mass density in data set [2] (297.15 K) turned out to be 831.1 ± 2.2 kg/m3.

For `CCOC(C)=O` [ethyl acetate], the refractive index in data set [1] (293.15 K) was 1.372 ± 0.0011. Also, in data set [2] (293.15 K), the mass density was found to be 900.1 ± 2.4 kg/m3.

With `CCCCCC` [hexane], the refractive index in data set [1] (298.15 K) was 1.3729 ± 0.0011. For the same compound, the mass density in data set [2] (298.15 K) was 660.4 ± 1.8 kg/m3.

For `CCCCCCCCCO` [nonan-1-ol], the refractive index in data set [1] (293.15 K) was found to be 1.4327 ± 0.0011. Also, in data set [2] (293.15 K), the mass density was found to be 828.5 ± 2.2 kg/m3.

Consider `Cc1ccccc1` [toluene], for which the refractive index in data set [1] (293.15 K) is on record as 1.496 ± 0.0011. In data set [2] (293.15 K), the mass density came to 866.7 ± 2.3 kg/m3.

With `CCCCCCCCN(CCCCCCCC)CCCCCCCC` [trioctylamine], in data set [1] (292.15 K), the refractive index is given as 1.4505 ± 0.0011. Further, the mass density in data set [2] (293.15 K) came out at 810.7 ± 2.2 kg/m3.

With `O` [water], the refractive index in data set [1] (293.15 K) was found to be 1.3324 ± 0.0011. Besides, in data set [2] (293.15 K), the mass density was determined as 999.9 ± 2.7 kg/m3.
